From ChEMBL document CHEMBL5579788 (Bioorg Med Chem Lett, 2024)

What was measured:
[1] = target: Replicase polyprotein 1ab (Severe acute respiratory syndrome coronavirus 2) (UniProt P0DTD1); assay: Inhibition of SARS CoV-2 main protease at 10 uM relative to control
[2] = target: Replicase polyprotein 1ab (Severe acute respiratory syndrome coronavirus 2, UniProt P0DTD1); assay: (§1) Inhibition of SARS CoV-2 main protease
[3] = Cytotoxicity against HEK293-A cells assessed as reduction in cell viability by CCK-8 assay; format: toxicity, cell-based; conditions: human
SARS-CoV-2 [4] = assay: Antiviral activity against SARS-CoV-2; format: functional, organism-based; conditions: Severe acute respiratory syndrome coronavirus 2
[5] = target: Replicase polyprotein 1ab (Severe acute respiratory syndrome coronavirus 2) (UniProt P0DTD1); assay: as §1
[6] = target: Replicase polyprotein 1ab (Severe acute respiratory syndrome coronavirus 2) (UniProt P0DTD1); assay: Inhibition of SARS CoV-2 main protease at 50 uM relative to control
SARS-CoV-2 [7] = assay: Antiviral activity against wild type SARS-CoV-2 infected in Vero E6 cells assessed as inhibition of viral induced cytopathic effect incubated for 72 hrs by MTT assay; format: functional, organism-based; conditions: Severe acute respiratory syndrome coronavirus 2, Vero C1008, 72 h

| SMILES | inhibition [1] [%] | IC50 [2] [µM] | also measured |
| --- | --- | --- | --- |
| Cc1cccc(C)c1NC(=O)C1c2cccc[n+]2CC(=O)N1c1ccc(Cl)cc1 (centres undefined) | 50.1 | – | – |
| Cc1cc(C)cc(N2C(=O)C[n+]3ccccc3C2C(=O)Nc2ccc(Cl)cc2)c1 (centres undefined) | 75.7 | 8.8 | – |
| Cc1cccc(C)c1NC(=O)C1c2cccc[n+]2CC(=O)N1c1ccc2c(c1)OCO2 (centres undefined) | < 20 | – | – |
| COc1ccccc1N1C(=O)C[n+]2ccccc2C1C(=O)Nc1c(C)cccc1C (centres undefined) | < 20 | – | – |
| O=C(Nc1ccc(Cl)cc1)C1c2cccc[n+]2CC(=O)N1Cc1ccc2c(c1)OCO2 (centres undefined) | 72.5 | 6.9 | CC50 [3]: > 300 µM |
| Cc1ccc(N2C(=O)C[n+]3ccccc3C2C(=O)Nc2ccc(Cl)cc2)cc1Br (centres undefined) | 78.2 | 4.5 | CC50 [3]: > 300 µM |
| COc1ccc(N2C(=O)C[n+]3ccccc3C2C(=O)Nc2ccc(Cl)cc2)cc1 (centres undefined) | 57.7 | – | – |
| O=C(Nc1ccccc1)C1c2cccc[n+]2CC(=O)N1c1ccccc1 (centres undefined) | 84.3 | 5.2 | – |
| Cc1cccc(C)c1NC(=O)C1c2cccc[n+]2CC(=O)N1CCO (centres undefined) | < 20 | – | – |
| Cc1cccc(C)c1NC(=O)C1c2cccc[n+]2CC(=O)N1Cc1ccc2c(c1)OCO2 (centres undefined) | < 20 | – | – |
| CCc1cccc(C)c1N1C(=O)C[n+]2ccccc2C1C(=O)Nc1ccccc1C (centres undefined) | < 20 | – | – |
| CC(C)(C)C(=O)N[C@H](C(=O)N1CC2(C[C@H]1C(=O)N[C@H](C#N)C[C@@H]1CCNC1=O)SCCS2)C(C)(C)C | – | 0.022 | EC50 (SARS-CoV-2 [4]): 0.57 µM |
| Cc1ccc(N2C(=O)C[n+]3ccccc3C2C(=O)Nc2ccccc2C)cc1 (centres undefined) | 83 | 6.1 | – |
| Cc1cccc(C)c1NC(=O)C1c2cccc[n+]2CC(=O)N1c1cccc(C(F)(F)F)c1 (centres undefined) | < 20 | – | – |
| O=C(Nc1ccc(Cl)cc1)C1c2cccc[n+]2CC(=O)N1c1cccc(Cl)c1 (centres undefined) | 84.5 | 5.1 | – |
| O=C1C2C3C=CC(CO)(O3)C2C(=O)N1c1cc(C(F)(F)F)ccc1Cl (centres undefined) | – | 4.4 | inhibition [5]: Dose-Dependent Effect; inhibition [6]: > 50% |
| CCOc1ccc(N2C(=O)C[n+]3ccccc3C2C(=O)Nc2ccc(Cl)cc2)cc1 (centres undefined) | 47.2 | – | – |
| CN1C(=O)C[n+]2ccccc2C1C(=O)Nc1ccccc1 (centres undefined) | 93.3 | 8.9 | – |
| CCOc1ccc(NC(=O)C2c3cccc[n+]3CC(=O)N2c2ccccc2)cc1 (centres undefined) | 80.4 | 5 | – |
| CCN1C(=O)C[n+]2ccccc2C1C(=O)Nc1c(C)cccc1C (centres undefined) | < 20 | – | – |
| CCOc1ccc(NC(=O)C2c3cccc[n+]3CC(=O)N2c2ccc(OCC)cc2)cc1 (centres undefined) | 21.7 | – | – |

| SMILES | inhibition [1] [%] | IC50 [2] [µM] | also measured |
| --- | --- | --- | --- |
| O=C(NC1CCCC1)C(=O)[C@H](CC1CCNC1=O)NC(=O)[C@@H]1[C@H]2CCC[C@H]2CN1C(=O)[C@@H](NC(=O)C(F)(F)F)C1CCCCC1 (some centres undefined) | – | – | EC50 (SARS-CoV-2 [7]): 0.095 µM |
| O=C(Nc1ccccc1)C1c2cccc[n+]2CC(=O)N1c1ccc(Br)cc1 (centres undefined) | 71.3 | 8.6 | – |
| Cc1ccccc1NC(=O)C1c2cccc[n+]2CC(=O)N1c1c(C)cccc1C (centres undefined) | < 20 | – | – |
| COc1ccc(NC(=O)C2c3cccc[n+]3CC(=O)N2c2ccccc2O)cc1 (centres undefined) | 26.5 | – | – |
| CCCN1C(=O)C[n+]2ccccc2C1C(=O)Nc1c(C)cccc1C (centres undefined) | < 20 | – | – |
| Cc1cccc(C)c1NC(=O)C1c2cccc[n+]2CC(=O)N1C (centres undefined) | 85.8 | 8.3 | – |
| Cc1ccccc1N1C(=O)C[n+]2ccccc2C1C(=O)Nc1ccccc1 (centres undefined) | 78.7 | 5.6 | – |
| Cc1cccc(C)c1NC(=O)C1c2cccc[n+]2CC(=O)N1c1cccc(Cl)c1 (centres undefined) | 31 | – | – |
| O=C(Nc1ccc(Cl)cc1)C1c2cccc[n+]2CC(=O)N1c1ccc(Cl)cc1 (centres undefined) | 75.7 | 9.6 | – |
| CC1(C(=O)Nc2ccc(Cl)cc2)c2cccc[n+]2CC(=O)N1c1ccc(Cl)cc1 (centres undefined) | < 20 | – | – |
| Cc1cccc(N2C(=O)C[n+]3ccccc3C2C(=O)Nc2ccccc2)c1 (centres undefined) | 80.5 | 6.1 | inhibition [5]: Dose-Dependent Effect; inhibition [6]: > 50% |
| Cc1ccccc1NC(=O)C1c2cccc[n+]2CC(=O)N1C (centres undefined) | 75.3 | 4 | CC50 [3]: > 300 µM |
| Cc1cc(C)cc(N2C(=O)C[n+]3ccccc3C2C(=O)Nc2ccccc2C)c1 (centres undefined) | 66.6 | – | – |
| Cc1ccc(N2C(=O)C[n+]3ccccc3C2(C)C(=O)Nc2ccc(Cl)cc2)cc1 (centres undefined) | < 20 | – | – |
| Cc1cccc(C)c1NC(=O)C1(C)c2cccc[n+]2CC(=O)N1c1ccc(Cl)cc1 (centres undefined) | 32.1 | – | – |
| C=CCN1C(=O)C[n+]2ccccc2C1C(=O)Nc1c(C)cccc1C (centres undefined) | < 20 | – | – |
| O=C(Nc1ccc(Cl)cc1)C1c2cccc[n+]2CC(=O)N1c1ccc(Br)cc1 (centres undefined) | 82.2 | 8.5 | – |
| CCOc1ccc(NC(=O)C2c3cccc[n+]3CC(=O)N2c2ccc(OC)cc2)cc1 (centres undefined) | 30 | – | – |
| Cc1ccc(N2C(=O)C[n+]3ccccc3C2C(=O)Nc2c(C)cccc2C)cc1Cl (centres undefined) | < 20 | – | – |
| O=C[C@H](C[C@@H]1CCNC1=O)NC(=O)[C@H](Cc1cccc(F)c1)NC(=O)c1cc2ccccc2[nH]1 | – | – | EC50 (SARS-CoV-2 [4]): 0.72 µM |
